Test results published in US20130323767A1, “Method to Identify Liver Toxicity Using Metabolite Profiles” (STRAND LIFE SCIENCES PRIVATE LIMITED, priority 2011, published 2013).

Tests used:
Type in all cases: biochemical
Conditions in all cases: experimental data or published literature, primary rat hepatocyte cultures
Influx of fatty acids = assay: Observed % change in influx of fatty acids, drug-treated hepatocytes
Experimental: (§1) Liver specific cells or cell-lines are treated with known doses of drugs or toxicants. Upon treatment, the cells are harvested and cellular extracts prepared. In these extracts, the drug-induced alterations in metabolite profiles can be obtained by any technique such as biochemical assays, mass spectrometry, NMR or any other technique for obtaining metabolite profile known in the art. These are then compared with values obtained in the absence of the drug. Metabolites with significant alterations from their untreated values are identified. This generates what is referred to as altered metabolites 1.
(§2) All metabolite profiles upon drug treatment are obtained experimentally from primary rat hepatocyte cultures. The drug-induced metabolite profiles are then compared with those from untreated cells to obtain altered metabolites 1. The CMA-ES procedure described above is applied wherein, an initial population of 40 randomly generated parameter sets with fitness criteria of 10^−8 is used and the set of likely altered parameters are estimated for the following drugs. Further, a set of biochemical assays are carried out wherever possible to experimentally measure the level of parameter alteration.
(§3) For the validation of this disclosure, biochemical enzymatic assays are used. However, methods such as NMR, or mass spectrometry can also be used for metabolite data collection. […]

fof1ATPase = assay: Observed % change in concentration of fof1ATPase
Experimental: as §1, §2, §3

[1] = test system: Glutathione reductase (mitochondrial); assay: Observed % change in glutathione reductase (mitochondrial)
Experimental: as §1, §2, §3

[2] = test system: Glutathione peroxidase (mitochondrial); assay: Observed % change in glutathione peroxidase (mitochondrial)
Experimental: as §1, §2, §3

[3] = test system: Carnitine palmitoyl transferase; assay: Observed % change in carnitine palmitoyl transferase
Experimental: as §1, §2, §3

[4] = test system: Gamma glutamyl cysteine synthetase; assay: Observed % change in gamma glutamyl cysteine synthetase
Experimental: as §1, §2, §3

[5] = test system: Glutathione reductase (cytosolic); assay: Observed % change in glutathione reductase (cytosolic)
Experimental: as §1, §2, §3

[6] = test system: Glutathione peroxidase (cytosolic); assay: Observed % change in glutathione peroxidase (cytosolic)
Experimental: as §1, §2, §3

k proton leak = assay: Observed % change in k proton leak
Experimental: as §1, §2, §3

k Ca2+/Na+ = assay: Observed % change in k Ca2+/Na+

Question: With `O=C(O)Cc1ccccc1Nc1c(Cl)cccc1Cl` [Diclofenac] as the molecule, how does the “Influx of fatty acids, observed % change” value (Influx of fatty acids) read?
Answer: −9.00%

Question: And the “Concentration_of_fof1ATPase, observed % change” value (fof1ATPase)?
Answer: −22.00%

Question: And the “Glutathione reductase (mitochondrial), observed % change” value [1]?
Answer: 20.00%

Question: What about the “Glutathione peroxidase (mitochondrial), observed % change” value [2] of the same molecule?
Answer: 21.00%

Question: What about the “Carnitine palmitoyl transferase, observed % change” value [3] of the same molecule?
Answer: 0.00%

Question: And the “Gamma glutamyl cysteine synthetase, observed % change” value [4]?
Answer: 0.00%

Question: And the “Glutathione reductase (cytosolic), observed % change” value [5]?
Answer: 360.00%

Question: And the “Glutathione peroxidase (cytosolic), observed % change” value [6]?
Answer: 7.00%

Question: And the “k proton leak, observed % change” value (k proton leak)?
Answer: 400.00%

Question: What about the “k Ca2+/Na+, observed % change” value (k Ca2+/Na+) of the same molecule?
Answer: 900.00%

Question: For `CCCC(CCC)C(=O)O` [Valproic acid], which “Influx of fatty acids, observed % change” value (Influx of fatty acids) is on record?
Answer: −36.00%

Question: What about the “Concentration_of_fof1ATPase, observed % change” value (fof1ATPase) of the same molecule?
Answer: −1.00%

Question: And the “Glutathione reductase (mitochondrial), observed % change” value [1]?
Answer: −60.00%

Question: And the “Glutathione peroxidase (mitochondrial), observed % change” value [2]?
Answer: −44.00%

Question: What about the “Carnitine palmitoyl transferase, observed % change” value [3] of the same molecule?
Answer: −70.00%

Question: And the “Gamma glutamyl cysteine synthetase, observed % change” value [4]?
Answer: −53.00%

Question: And the “Glutathione reductase (cytosolic), observed % change” value [5]?
Answer: 40.00%

Question: And the “Glutathione peroxidase (cytosolic), observed % change” value [6]?
Answer: −22.00%

Question: What about the “k proton leak, observed % change” value (k proton leak) of the same molecule?
Answer: 400.00%

Question: What about the “k Ca2+/Na+, observed % change” value (k Ca2+/Na+) of the same molecule?
Answer: 900.00%
